Values belong to the molecule of their own block, whether it stands above or below them. Active and inactive are the calls of the source.
How the values were obtained:
[1] = biological target: T1, Mannose-6-phosphate isomerase (Homo sapiens, UniProt P34949); test: MPI inhibition at elevated mannose 6-phosphate – biochemical, fluorescence intensity, high mannose 6-phosphate, primary screen (AID 1220)
T1 sequence (P34949 whole entry): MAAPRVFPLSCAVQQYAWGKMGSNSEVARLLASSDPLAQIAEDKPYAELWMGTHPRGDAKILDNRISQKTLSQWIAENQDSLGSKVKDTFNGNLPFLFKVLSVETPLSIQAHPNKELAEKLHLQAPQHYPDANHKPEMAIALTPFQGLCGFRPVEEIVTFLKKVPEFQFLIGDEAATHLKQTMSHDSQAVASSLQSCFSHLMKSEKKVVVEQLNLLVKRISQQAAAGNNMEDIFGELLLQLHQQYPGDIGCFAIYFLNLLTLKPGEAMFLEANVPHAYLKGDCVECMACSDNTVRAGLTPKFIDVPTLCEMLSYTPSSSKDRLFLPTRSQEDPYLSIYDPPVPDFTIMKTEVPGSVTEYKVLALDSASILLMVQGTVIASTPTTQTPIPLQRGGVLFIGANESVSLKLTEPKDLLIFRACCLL

[2] = biological target: T2, Ubiquitin-conjugating enzyme E2 N (Homo sapiens, UniProt P61088); format: functional;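 also: Dose-response confirmation in a TR-FRET assay detecting UBC13-driven polyubiquitin chain formation, inhibition measured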
T2 sequence (P61088 whole entry): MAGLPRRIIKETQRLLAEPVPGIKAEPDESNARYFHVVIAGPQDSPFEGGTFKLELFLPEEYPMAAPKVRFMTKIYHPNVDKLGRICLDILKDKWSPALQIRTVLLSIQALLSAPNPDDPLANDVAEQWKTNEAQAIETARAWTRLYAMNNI

[3] = biological target: T3, Short transient receptor potential channel 4 (Mus musculus, UniProt Q9QUQ5); test: block of DAMGO-driven TRPC4 calcium entry – cell-based, HEK293 TRPC4/mu-opioid, Fluo-4 calcium, dose response (AID 434942); format: functional;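 also: potency of inhibitors blocking the TRPC4 calcium response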
T3 sequence (Q9QUQ5 whole entry): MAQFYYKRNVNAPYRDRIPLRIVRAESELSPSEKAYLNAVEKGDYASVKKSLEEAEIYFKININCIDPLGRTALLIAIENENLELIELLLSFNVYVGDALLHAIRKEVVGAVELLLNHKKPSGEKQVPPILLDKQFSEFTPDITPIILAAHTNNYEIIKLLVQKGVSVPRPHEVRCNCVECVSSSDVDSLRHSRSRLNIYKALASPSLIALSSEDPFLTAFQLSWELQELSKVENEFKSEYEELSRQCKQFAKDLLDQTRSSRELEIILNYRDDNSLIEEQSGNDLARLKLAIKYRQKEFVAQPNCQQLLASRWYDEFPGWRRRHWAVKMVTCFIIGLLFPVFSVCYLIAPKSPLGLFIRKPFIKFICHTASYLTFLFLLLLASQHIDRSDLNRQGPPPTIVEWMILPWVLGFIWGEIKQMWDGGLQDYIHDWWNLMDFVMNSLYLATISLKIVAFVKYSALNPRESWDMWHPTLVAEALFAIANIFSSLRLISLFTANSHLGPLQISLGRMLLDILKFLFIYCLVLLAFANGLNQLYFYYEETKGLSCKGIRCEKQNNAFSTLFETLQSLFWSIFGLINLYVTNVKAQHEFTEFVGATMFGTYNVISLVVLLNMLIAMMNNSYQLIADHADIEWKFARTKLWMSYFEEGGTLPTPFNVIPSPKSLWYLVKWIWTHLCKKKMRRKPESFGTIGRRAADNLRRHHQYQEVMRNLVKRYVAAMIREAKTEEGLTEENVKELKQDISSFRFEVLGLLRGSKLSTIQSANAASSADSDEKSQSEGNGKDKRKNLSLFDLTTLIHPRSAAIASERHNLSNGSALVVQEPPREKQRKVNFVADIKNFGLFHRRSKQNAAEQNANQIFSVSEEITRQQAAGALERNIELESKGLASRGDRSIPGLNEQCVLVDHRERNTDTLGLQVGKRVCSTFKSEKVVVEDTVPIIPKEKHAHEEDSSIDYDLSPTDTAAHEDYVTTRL

cells [4] = format: functional, cell-based
cells [5] = format: functional, cell-based; remark: listed apart in the source
Caspase-6 = biological target: T4, Caspase-6 (Homo sapiens, UniProt P55212); test: inhibition of CASP6 peptide cleavage – biochemical, VEID-R110 fluorescence, cherry-pick, dose response (AID 720632)
T4 sequence (P55212 whole entry): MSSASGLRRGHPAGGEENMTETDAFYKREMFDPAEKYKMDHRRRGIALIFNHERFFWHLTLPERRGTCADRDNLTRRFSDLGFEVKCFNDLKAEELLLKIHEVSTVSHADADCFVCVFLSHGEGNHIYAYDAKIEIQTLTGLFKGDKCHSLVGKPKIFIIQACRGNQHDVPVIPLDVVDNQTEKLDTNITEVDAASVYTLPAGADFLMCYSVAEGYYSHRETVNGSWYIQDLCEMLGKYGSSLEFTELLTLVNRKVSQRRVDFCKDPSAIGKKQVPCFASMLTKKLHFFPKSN

H9c2 = test: cells; format: functional, cell-based; conditions: Rattus norvegicus, H9c2, Myocardium;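 also: confirmatory concentration-response retest of ultra-high-throughput screening hits for modulation of myocardial damage; cell death induced by hydrogen peroxide oxidative stress; compound pretreatment for 60 min then peroxide exposure for 2 h; potency is for protecting the cells against peroxide damage rather than for killing them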
[6] = biological target: Luciferin 4-monooxygenase (Photinus pyralis, UniProt P08659); test: inhibition of purified Photinus pyralis luciferase – biochemical, luminescence, dose response (AID 1891)
Sequence of Luciferin 4-monooxygenase (P08659 whole entry): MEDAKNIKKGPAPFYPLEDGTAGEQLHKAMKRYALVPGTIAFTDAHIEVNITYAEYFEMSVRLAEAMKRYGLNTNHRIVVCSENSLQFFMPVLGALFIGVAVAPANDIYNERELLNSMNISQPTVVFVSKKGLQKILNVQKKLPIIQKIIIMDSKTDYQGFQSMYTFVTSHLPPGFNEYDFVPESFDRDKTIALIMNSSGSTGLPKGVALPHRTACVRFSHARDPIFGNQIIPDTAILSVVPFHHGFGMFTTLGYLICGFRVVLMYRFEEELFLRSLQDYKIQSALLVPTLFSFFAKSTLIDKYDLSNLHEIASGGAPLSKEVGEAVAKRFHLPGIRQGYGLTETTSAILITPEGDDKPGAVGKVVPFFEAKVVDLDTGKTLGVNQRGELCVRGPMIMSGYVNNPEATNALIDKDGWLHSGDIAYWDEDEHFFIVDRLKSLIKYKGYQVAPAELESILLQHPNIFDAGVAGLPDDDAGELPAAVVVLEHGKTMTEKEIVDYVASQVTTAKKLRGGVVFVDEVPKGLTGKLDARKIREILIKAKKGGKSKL

[7] = Luminescence Cell-Based Dose Confirmation HTS to Identify Inhibitors of Platelet Dense Granule Release. [Related pubchem assays: 1663 (Primary HTS), 1678 (Summary of Project)]; format: functional
[8] = biological target: T5, RNA-binding protein pos-1 (Caenorhabditis elegans, UniProt G5EF15); test: disruptors of C. elegans POS-1 RNA interaction – biochemical, fluorescence polarization, dose response (AID 1964);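 also: purified POS-1 fused to maltose binding protein made in E. coli; potency of compounds blocking POS-1 binding to fluorescent RNA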
T5 sequence (G5EF15 whole entry): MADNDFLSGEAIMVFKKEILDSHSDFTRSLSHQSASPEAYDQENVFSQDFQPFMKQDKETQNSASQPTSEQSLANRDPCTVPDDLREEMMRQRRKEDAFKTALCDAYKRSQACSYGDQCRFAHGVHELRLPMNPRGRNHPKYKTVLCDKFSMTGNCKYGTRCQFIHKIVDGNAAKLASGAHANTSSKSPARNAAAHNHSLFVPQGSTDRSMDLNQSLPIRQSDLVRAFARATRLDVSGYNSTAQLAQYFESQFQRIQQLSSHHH

[9] = biological target: T6, Zinc finger protein mex-5 (Caenorhabditis elegans, UniProt Q9XUB2); test: potency of MEX-5 RNA-binding blockers – biochemical, C. elegans, fluorescence polarization, dose response (AID 1960)
T6 sequence (Q9XUB2 whole entry): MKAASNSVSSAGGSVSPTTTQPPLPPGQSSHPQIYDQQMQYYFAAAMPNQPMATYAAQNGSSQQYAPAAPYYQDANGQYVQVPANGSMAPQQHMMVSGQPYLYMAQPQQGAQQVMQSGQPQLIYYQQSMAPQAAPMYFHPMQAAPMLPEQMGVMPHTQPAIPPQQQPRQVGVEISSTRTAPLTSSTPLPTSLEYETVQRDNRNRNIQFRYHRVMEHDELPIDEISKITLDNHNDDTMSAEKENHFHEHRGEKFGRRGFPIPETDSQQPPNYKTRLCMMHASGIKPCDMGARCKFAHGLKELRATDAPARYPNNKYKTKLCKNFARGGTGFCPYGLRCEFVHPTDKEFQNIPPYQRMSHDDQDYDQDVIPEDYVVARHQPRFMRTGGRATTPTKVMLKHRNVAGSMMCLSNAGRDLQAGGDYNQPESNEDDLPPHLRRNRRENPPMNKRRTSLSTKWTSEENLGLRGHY

[10] = biological target: T7, Corticotropin-releasing factor receptor 2/Corticotropin-releasing factor-binding protein (Homo sapiens, UniProt P24387+Q13324); test: Dose Response confirmation of uHTS hits for small molecule antagonists of the CRF-binding protein and CRF-R2 receptor complex.; format: functional; conditions: read-out: IC50_Mean
T7 sequence (Q13324 whole entry): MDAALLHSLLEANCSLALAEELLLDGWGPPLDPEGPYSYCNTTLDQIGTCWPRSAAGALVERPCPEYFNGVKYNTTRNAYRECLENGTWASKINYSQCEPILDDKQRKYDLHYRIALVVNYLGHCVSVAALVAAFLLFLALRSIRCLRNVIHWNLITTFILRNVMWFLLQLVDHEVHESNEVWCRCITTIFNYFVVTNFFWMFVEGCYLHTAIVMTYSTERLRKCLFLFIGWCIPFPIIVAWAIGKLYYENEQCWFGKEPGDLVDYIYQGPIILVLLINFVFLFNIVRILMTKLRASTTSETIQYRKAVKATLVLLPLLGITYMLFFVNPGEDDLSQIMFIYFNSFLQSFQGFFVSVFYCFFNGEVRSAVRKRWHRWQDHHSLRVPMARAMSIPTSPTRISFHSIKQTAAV
T7 sequence (P24387 whole entry): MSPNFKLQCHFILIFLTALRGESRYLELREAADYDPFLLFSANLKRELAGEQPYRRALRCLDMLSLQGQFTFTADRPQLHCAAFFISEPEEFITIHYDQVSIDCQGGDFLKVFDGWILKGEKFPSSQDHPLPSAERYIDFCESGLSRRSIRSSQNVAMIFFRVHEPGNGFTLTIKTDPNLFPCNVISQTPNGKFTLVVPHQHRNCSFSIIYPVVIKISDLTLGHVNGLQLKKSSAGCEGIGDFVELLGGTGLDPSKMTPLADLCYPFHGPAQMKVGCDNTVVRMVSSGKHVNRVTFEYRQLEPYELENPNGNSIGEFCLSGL

[11] = biological target: T7, Corticotropin-releasing factor receptor 2/Corticotropin-releasing factor-binding protein; test: activators of CRF receptor 2 with binding protein – uHTS hits, confirmation (AID 602473); format: functional; conditions: read-out: EC50_Mean
[12] = P. falciparum Dd2 growth inhibitors, dose response, SYBR Green, cherry-picked samples (AID 1159567); format: functional, cell-based

IC50 [1]: > 50 µM (not active)
SMILES: Cc1c(C(=O)O)c(C(=O)O)nc2ccc(N3CCOCC3)cc12

IC50 [2]: > 20 µM (inactive)
SMILES: COc1ccc(-c2cc3ccccc3oc2=O)cc1NC(=S)NC(=O)c1ccc2c(c1)OCCO2

EC50 [3]: 2.11 µM (active)
SMILES: O=C(Nc1ccccc1)N1CCN2C(=O)c3ccccc3C12c1ccccc1 (configuration not stated)

SMILES: Cc1ccc(S(=O)(=O)NC2=NC(=O)/C(=C/c3cc([N+](=O)[O-])ccc3O)S2)cc1
EC50 (cells [4]): > 350 µM (not active)
EC50 (cells [5]): 53.1 µM (active)
AC50 (Caspase-6): 10.7 µM (active)

SMILES: Cc1sc2nc(SCC(=O)N3CCCC3)nc(O)c2c1C
IC50 (H9c2): > 79 µM (inactive)

IC50 [2]: > 20 µM (inactive)
SMILES: CCOC(=O)CCCSc1nnc(CCCCCN2C(=O)c3cccc4cccc(c34)C2=O)o1

SMILES: N#C/C(=C\c1cn(-c2ccccc2)nc1-c1cccnc1)c1nnc2n1CCCCC2
IC50 (H9c2): 15.8 µM (active)

EC50 [3]: 4.22 µM (active)
SMILES: Cc1nc2c3cc(Cl)ccc3n(CCN3CCCCC3)c2s1

IC50 [1]: > 50 µM (not active)
SMILES: Fc1ccccc1Nc1nc2c(s1)CCc1ccccc1-2

SMILES: CN1CCN(/C=C2\SC(=S)NC2=O)CC1
EC50 [6]: > 112 µM (not active)
EC50 [7]: > 112 µM (not active)

SMILES: CCOC(=O)C1CCN(c2cc3c(cc2NC(=O)c2ccccc2)n(C)c(=O)n3C)CC1
IC50 (H9c2): > 79 µM (inactive)

SMILES: O=C(Cc1ccc(-n2c(=O)c3ccccc3n(Cc3ccc(F)cc3)c2=O)cc1)NCC1CCCO1 (configuration not stated)
EC50 [6]: > 112 µM (not active)
EC50 [7]: > 112 µM (not active)

EC50 [3]: 5.31 µM (active)
SMILES: COc1ccc(Br)cc1CNC(C)c1ccccc1 (configuration not stated)

IC50 [1]: > 50 µM (not active)
SMILES: CCN(C(=S)Nc1cccnc1)c1cccc2ccccc12

SMILES: Cc1nc2cc(NC(=O)Nc3ccccc3Cl)ccc2n1C
EC50 [6]: 5.05 µM (active)
EC50 [7]: 5.86 µM (active)

IC50 [2]: > 20 µM (inactive)
SMILES: CC(C)n1c(NCc2cc(Cl)ccc2O)nc2ccccc21

EC50 [3]: 0.0173 µM (active)
SMILES: COc1ccc(NC(=O)c2cccc(N3C(=O)C4CC=C(C)CC4C3=O)c2)c(OC)c1 (configuration not stated)

IC50 [2]: > 20 µM (inactive)
SMILES: CCC1(c2ccccc2)NC(=O)N(CC(=O)Nc2cc(Cl)ccc2N2CCN(C)CC2)C1=O (configuration not stated)

SMILES: Cc1cc(C)cc(NC(=O)c2cc(S(=O)(=O)N3CCCC3)cn2C)c1
EC50 [6]: > 112 µM (not active)
EC50 [7]: > 112 µM (not active)

SMILES: O=C/C(=C\Nc1ccccn1)c1nc2cc(Cl)ccc2o1
EC50 [8]: 67.7 µM (active)
EC50 [9]: 36.4 µM (active)
IC50 (H9c2): > 79 µM (inactive)
IC50 [10]: > 47.1 µM (inactive)
EC50 [11]: > 53 µM (inactive)

SMILES: Cc1ccc(NC(=O)CCc2nc(O)c3ccccc3n2)cc1S(=O)(=O)N1CCOCC1
IC50 (H9c2): > 79 µM (inactive)

SMILES: NS(=O)(=O)c1cccc(NC(=O)COC(=O)Cc2nnc(O)c3ccccc23)c1
IC50 (H9c2): > 79 µM (inactive)

SMILES: Cc1ccc(C=NNc2nc3c(=O)n(C)c(=O)n(C)c3[nH]2)cc1
IC50 (H9c2): > 79 µM (inactive)

IC50 [1]: > 50 µM (not active)
SMILES: Oc1ccc(/C=N/N(Cc2ccccc2)c2ccccc2)c(O)c1O

SMILES: CCC(=O)/N=c1\sc2cc(F)cc(F)c2n1C
EC50 [6]: > 112 µM (not active)
EC50 [7]: > 112 µM (not active)

SMILES: O=C(C[C@H]1C[C@@H]2c3cc(NC(=O)Nc4ccccc4)ccc3O[C@@H]2[C@H](CO)O1)NCc1ccccc1
AC50 [12]: 12.4 µM (active)
